From the supplement of paper PMC11208160 come the findings set out here.
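Further: IS621 recombinase and bridge RNA in Escherichia coli cells.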

The data set in a line: recombinant barcode read abundance after kanamycin selection (control-corrected) (log10(CPM+1)); higher = more efficient recombination; sequences stand for … in AGTGCAGAGAAAATCGGCCAGTTTTCTCTGCCTGCAGTCCGCATGCCGT…AGATTTATGCAGCGGACTGCCTTTCTCCCAAAGTGATAAACCGGACAGTATCATGGACCGGTTTTCCCGGTAATCCGTATTTGCAAGGTTGGTTTCACT; site = the 11-nt target. On the procedure: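 Pooled E. coli target-specificity screen for the IS621 bridge recombinase. Each library plasmid pairs an 11-nt target (CT core) with a bridge RNA whose target-binding loop (9-nt LTG + 4-nt RTG) is reprogrammed; the rest of the 177-nt WT IS621 bridge RNA scaffold is fixed. The plasmid is co-electroporated with a WT donor plasmid; recombinase is induced with 0.1 mM IPTG and recombinants are selected on kanamycin. Recombinant barcodes are sequenced, converted to CPM, averaged over two biological replicates and corrected by the unselected control CPM. Molecule = full bridge RNA written as DNA: LTG = specificity nt 1-9, RTG = reverse complement of specificity nt 8-11, in the WT scaffold.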
Regarding “AGATGAGCTTGGGTTCTAACCTGTTGCGG (site AGATGAGCTCC)”, the “recombinant barcode read abundance (log10)” value came to 1.51.
With “AGATGTGCTTGGGTTCTAACCTGTTGCCT (site AGATGTGCTAG)”, the “recombinant barcode read abundance (log10)” value stood at 1.49.
The same measure for “AGATGTGCTTGGGTTCTAACCTGTTGCCT (site CACAAACCTCT)”: 0.181; for “AGATTATCTTGGGTTCTAACCTGTTGCCT (site AGAATATCTAG)”: 0.21; for “AGATTATCTTGGGTTCTAACCTGTTGCCT (site AGATTATCTAG)”: 1.32.
The same measure for “AGCAGCACTTGGGTTCTAACCTGTTGCCT (site AGCAGCACTAG)”: 0.731; for “AGCAGCACTTGGGTTCTAACCTGTTGCCT (site CGCAGCACTAG)”: 0.298; for “AGCAGTACTTGGGTTCTAACCTGTTGCTA (site AGCAGTACTTA)”: 0.299.
The same measure for “AGCAGTACTTGGGTTCTAACCTGTTGCTA (site TTGGAGGCTAG)”: 0.248; for “AGCATCTCTTGGGTTCTAACCTGTTGCCG (site AGCATCTCTCG)”: 0.222.
Take “AGCATCTCTTGGGTTCTAACCTGTTGCCG (site CCTTGTACTAA)”: the “recombinant barcode read abundance (log10)” value was found to be 0.0503.
The same measure for “AGCATTCCTTGGGTTCTAACCTGTTGCCT (site AGCAGTGCTAG)”: 0.144; for “AGCATTCCTTGGGTTCTAACCTGTTGCCT (site AGCATTCCTAG)”: 0.394; for “AGCCCTCCTTGGGTTCTAACCTGTTGCTC (site AGCCCTCCTAA)”: 0.01.
The same measure for “AGCCCTCCTTGGGTTCTAACCTGTTGCTC (site AGCCCTCCTCA)”: 0.26; for “AGCCCTCCTTGGGTTCTAACCTGTTGCTC (site AGCCCTCCTGA)”: 1.19; for “AGCCCTCCTTGGGTTCTAACCTGTTGCTC (site AGCCCTCCTTA)”: 0.0233.
The same measure for “AGCGGTCCTTGGGTTCTAACCTGTTGCCT (site AGCGGACCTAG)”: 0.797.
As to “AGCGGTCCTTGGGTTCTAACCTGTTGCCT (site AGCGGCCCTAG)”, the “recombinant barcode read abundance (log10)” value stood at 1.05.
With “AGCGGTCCTTGGGTTCTAACCTGTTGCCT (site AGCGGGCCTAG)”, the “recombinant barcode read abundance (log10)” value was found to be 0.409.
The same measure for “AGCGGTCCTTGGGTTCTAACCTGTTGCCT (site AGCGGTCCTAG)”: 1.89.
Turning to “AGCGTCGCTTGGGTTCTAACCTGTTGCCT (site AGCGTCGCTAG)”, the “recombinant barcode read abundance (log10)” value came to 1.45.
The same measure for “AGCGTCGCTTGGGTTCTAACCTGTTGCCT (site TGCGTCGCTAG)”: 0.16; for “AGCGTTGCTTGGGTTCTAACCTGTTGCCT (site AGCATTGCTAG)”: 0.558; for “AGCGTTGCTTGGGTTCTAACCTGTTGCCT (site AGCCTTGCTAG)”: 0.142.
Next, “AGCGTTGCTTGGGTTCTAACCTGTTGCCT (site AGCGTTGCTAG)”: 1.05; “AGCGTTGCTTGGGTTCTAACCTGTTGCCT (site AGCTTTGCTAG)”: 0.16.
Consider “AGCTCCGCTTGGGTTCTAACCTGTTGCCT (site AGCTCCGCTAG)”, for which the “recombinant barcode read abundance (log10)” value was 0.222.
The same measure for “AGCTCCGCTTGGGTTCTAACCTGTTGCCT (site TGCTCGGCTAG)”: 0.2; for “AGCTGATCTTGGGTTCTAACCTGTTGCCT (site AGCTGATCTAG)”: 0.261.
The same measure for “AGCTGATCTTGGGTTCTAACCTGTTGCCT (site CGCTGATCTAG)”: 0.0237.
Next, “AGCTGATCTTGGGTTCTAACCTGTTGCCT (site GGCTGATCTAG)”: 0.147; “AGCTGATCTTGGGTTCTAACCTGTTGCCT (site TGCTGATCTAG)”: 0.015; “AGCTGGGCTTGGGTTCTAACCTGTTGCGG (site AGCTGGGCTCC)”: 1.6.
Take “AGCTGGGCTTGGGTTCTAACCTGTTGCGG (site AGTTGGGCTCA)”: the “recombinant barcode read abundance (log10)” value was found to be 0.393.
The same measure for “AGCTTAGCTTGGGTTCTAACCTGTTGCCT (site AGCTTAGCTAG)”: 0.555; for “AGCTTAGCTTGGGTTCTAACCTGTTGCCT (site AGCTTAGCTCG)”: 0.577.
Next, “AGCTTAGCTTGGGTTCTAACCTGTTGCCT (site AGCTTAGCTGG)”: 0.206.
Next, “AGCTTAGCTTGGGTTCTAACCTGTTGCCT (site AGCTTAGCTTG)”: 0.158.
As to “AGGAACCCTTGGGTTCTAACCTGTTGCTA (site AGGAACCCTAA)”, the “recombinant barcode read abundance (log10)” value is 0.316.
Turning to “AGGAACCCTTGGGTTCTAACCTGTTGCTA (site AGGAACCCTCA)”, the “recombinant barcode read abundance (log10)” value was determined as 0.0647.
The same measure for “AGGAACCCTTGGGTTCTAACCTGTTGCTA (site AGGAACCCTGA)”: 0.02.
Next, “AGGAACCCTTGGGTTCTAACCTGTTGCTA (site AGGAACCCTTA)”: 1.44; “AGGAACCCTTGGGTTCTAACCTGTTGCTC (site AGGAACCCTAA)”: 0.19; “AGGAACCCTTGGGTTCTAACCTGTTGCTC (site AGGAACCCTCA)”: 1.05.
The same measure for “AGGAACCCTTGGGTTCTAACCTGTTGCTC (site AGGAACCCTGA)”: 0.574; for “AGGAACCCTTGGGTTCTAACCTGTTGCTC (site AGGAACCCTTA)”: 0.0757; for “AGGAACTCTTGGGTTCTAACCTGTTGCCT (site AGGAACTCTAG)”: 2.52.
As for “AGGAACTCTTGGGTTCTAACCTGTTGCCT (site CGGAACTCTAG)”, the “recombinant barcode read abundance (log10)” value was 0.573.
Take “AGGAATCCTTGGGTTCTAACCTGTTGCTT (site AGGAATCCTAA)”: the “recombinant barcode read abundance (log10)” value was 0.901.
For “AGGAATCCTTGGGTTCTAACCTGTTGCTT (site AGGAGTCCTCA)”, the “recombinant barcode read abundance (log10)” value was 0.0229.
Consider “AGGACAACTTGGGTTCTAACCTGTTGCCT (site AGAACAACTAG)”, for which the “recombinant barcode read abundance (log10)” value is 0.106.
Next, “AGGACAACTTGGGTTCTAACCTGTTGCCT (site AGCACAACTAG)”: 0.155; “AGGACAACTTGGGTTCTAACCTGTTGCCT (site AGGACAACTAG)”: 0.048; “AGGACAACTTGGGTTCTAACCTGTTGCCT (site AGTACAACTAG)”: 0.181.
Turning to “AGGAGCCCTTGGGTTCTAACCTGTTGCCT (site AGGAGCCCTAG)”, the “recombinant barcode read abundance (log10)” value was determined as 1.48.
On to “AGGAGCCCTTGGGTTCTAACCTGTTGCCT (site AGGAGCCCTTG)”, for which the “recombinant barcode read abundance (log10)” value is 0.0624.
Next, “AGGAGTACTTGGGTTCTAACCTGTTGCTT (site AGGAGTACTAA)”: 0.761; “AGGAGTACTTGGGTTCTAACCTGTTGCTT (site GCATCCTCTTG)”: 0.12.
The same measure for “AGGCCCACTTGGGTTCTAACCTGTTGCAT (site AGGCCCACTAT)”: 2.12; for “AGGCCCACTTGGGTTCTAACCTGTTGCAT (site GCTGAGTCTTA)”: 0.109; for “AGGCCGGCTTGGGTTCTAACCTGTTGCCG (site AGGCCGCCTCG)”: 0.294.
The same measure for “AGGCCGGCTTGGGTTCTAACCTGTTGCCG (site AGGCCGGCTCG)”: 0.329.
With “AGGCCGTCTTGGGTTCTAACCTGTTGCGG (site AGGCCGTCTCC)”, the “recombinant barcode read abundance (log10)” value came to 0.815.
Next, “AGGCCGTCTTGGGTTCTAACCTGTTGCGG (site CACTACCCTAA)”: 0.357.
Next, “AGGCGCCCTTGGGTTCTAACCTGTTGCAC (site AGGCGCCCTAT)”: 0.249; “AGGCGCCCTTGGGTTCTAACCTGTTGCAC (site AGGCGCCCTCT)”: 0.112.
Turning to “AGGCGCCCTTGGGTTCTAACCTGTTGCAC (site AGGCGCCCTGT)”, the “recombinant barcode read abundance (log10)” value worked out at 1.33.
On to “AGGCGCCCTTGGGTTCTAACCTGTTGCAC (site AGGCGCCCTTT)”, for which the “recombinant barcode read abundance (log10)” value is 0.0439.
The same measure for “AGGCGTACTTGGGTTCTAACCTGTTGCCT (site AGACGTACTAG)”: 0.0558.
Take “AGGCGTACTTGGGTTCTAACCTGTTGCCT (site AGCCGTACTAG)”: the “recombinant barcode read abundance (log10)” value worked out at 0.302.
The same measure for “AGGCGTACTTGGGTTCTAACCTGTTGCCT (site AGGCGTACTAG)”: 0.465; for “AGGCGTACTTGGGTTCTAACCTGTTGCCT (site AGTCGTACTAG)”: 0.0768.
